For one data set, the target named is T1, Carboxypeptidase B2 (Homo sapiens, UniProt Q96IY4).
T1 sequence (Q96IY4 whole entry): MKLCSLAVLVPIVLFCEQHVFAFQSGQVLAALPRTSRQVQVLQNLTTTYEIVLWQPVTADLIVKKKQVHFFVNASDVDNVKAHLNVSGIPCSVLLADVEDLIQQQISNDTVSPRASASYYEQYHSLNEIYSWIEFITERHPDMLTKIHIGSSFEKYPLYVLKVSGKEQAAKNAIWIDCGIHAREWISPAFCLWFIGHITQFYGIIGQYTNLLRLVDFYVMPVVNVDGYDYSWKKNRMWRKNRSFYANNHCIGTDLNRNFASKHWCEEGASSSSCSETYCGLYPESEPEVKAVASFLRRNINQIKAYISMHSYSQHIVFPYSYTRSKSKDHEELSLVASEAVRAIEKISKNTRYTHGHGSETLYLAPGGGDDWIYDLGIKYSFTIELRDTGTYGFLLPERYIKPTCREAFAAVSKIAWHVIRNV

Data set [1] is described as follows: Volume distribution at steady state in Sprague-Dawley rat at 1 mg/kg, iv administered as bolus dose measured up to 24 hrs. Type of data set: ADME, organism-based. The conditions noted are these: in vivo, read-out: Vdss.
Data set [2] in a line: Drug excretion in Sprague-Dawley rat urine at 1 mg/kg, iv administered as bolus dose after 24 hrs. The conditions noted are these: read-out: Drug excretion. Type of data set: ADME, organism-based.
Data set [3] in a line: Initial plasma concentration in Sprague-Dawley rat at 1 mg/kg, iv administered as bolus dose measured up to 4 hrs. The class given is ADME, organism-based.
A short description of data set [4]: Clearance in Sprague-Dawley rat at 1 mg/kg, iv administered as bolus dose measured up to 24 hrs. Type of data set: ADME, organism-based. To be noted: in vivo.
The nature of data set [5]: Terminal half life in Sprague-Dawley rat at 1 mg/kg, iv administered as bolus dose measured up to 24 hrs. Type of data set: ADME, organism-based. The conditions noted are these: in vivo, read-out: beta t1/2 (converted).
Data set [6] has as its target Plasma kallikrein (Homo sapiens) (UniProt P03952). To be noted: 100 uM.
Description: Inhibition of KLKB1 (unknown origin) at 100 uM relative to control
The target in data set [7] is T2, Complement C1s subcomponent (Homo sapiens) (UniProt P09871).
T2 sequence (whole entry): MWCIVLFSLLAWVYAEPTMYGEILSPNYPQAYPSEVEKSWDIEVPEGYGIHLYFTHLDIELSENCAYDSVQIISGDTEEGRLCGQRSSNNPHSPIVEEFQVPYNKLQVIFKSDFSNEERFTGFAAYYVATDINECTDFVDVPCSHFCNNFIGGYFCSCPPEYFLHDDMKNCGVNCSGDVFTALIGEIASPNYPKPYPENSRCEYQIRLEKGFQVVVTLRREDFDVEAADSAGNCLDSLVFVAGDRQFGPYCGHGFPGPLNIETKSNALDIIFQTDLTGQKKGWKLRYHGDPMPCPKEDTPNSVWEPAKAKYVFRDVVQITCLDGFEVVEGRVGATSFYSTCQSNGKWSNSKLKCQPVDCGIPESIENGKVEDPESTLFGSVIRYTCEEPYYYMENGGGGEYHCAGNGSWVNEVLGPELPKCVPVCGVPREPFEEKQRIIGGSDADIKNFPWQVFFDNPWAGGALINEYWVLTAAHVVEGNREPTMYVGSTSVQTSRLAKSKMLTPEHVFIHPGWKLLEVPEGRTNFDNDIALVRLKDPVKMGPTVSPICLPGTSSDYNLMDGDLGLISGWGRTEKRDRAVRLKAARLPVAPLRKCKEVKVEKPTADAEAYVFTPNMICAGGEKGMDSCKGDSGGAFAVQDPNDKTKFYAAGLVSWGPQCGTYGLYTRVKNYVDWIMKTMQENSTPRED
In words: Inhibition of C1s (unknown origin) at 100 uM relative to control.

Data set [8] deals with Coagulation factor XI (Homo sapiens) (UniProt P03951). The data set is described as follows: Inhibition of factor 11a (unknown origin) at 100 uM relative to control.
Coagulation factor XI (Homo sapiens), sequence (P03951 19-387 limits assumed): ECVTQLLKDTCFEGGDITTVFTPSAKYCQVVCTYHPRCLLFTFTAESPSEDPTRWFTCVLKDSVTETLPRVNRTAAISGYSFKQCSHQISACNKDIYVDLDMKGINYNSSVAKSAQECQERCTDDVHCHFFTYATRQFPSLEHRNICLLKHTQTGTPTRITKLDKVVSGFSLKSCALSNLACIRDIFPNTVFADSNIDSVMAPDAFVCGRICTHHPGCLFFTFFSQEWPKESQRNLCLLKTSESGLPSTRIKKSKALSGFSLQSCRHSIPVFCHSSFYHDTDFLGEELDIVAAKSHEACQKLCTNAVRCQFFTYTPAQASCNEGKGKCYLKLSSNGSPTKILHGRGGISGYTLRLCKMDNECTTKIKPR
Coagulation factor XI (Homo sapiens), sequence (P03951 388-625 limits assumed): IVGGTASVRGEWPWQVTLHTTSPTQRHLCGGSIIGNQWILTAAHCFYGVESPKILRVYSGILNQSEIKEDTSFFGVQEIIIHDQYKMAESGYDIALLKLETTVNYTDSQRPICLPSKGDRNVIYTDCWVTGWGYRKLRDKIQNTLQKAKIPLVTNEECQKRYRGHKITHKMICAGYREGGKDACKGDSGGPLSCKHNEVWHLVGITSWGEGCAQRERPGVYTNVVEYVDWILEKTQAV
For data set [9], the target named is Coagulation factor X (Homo sapiens) (UniProt P00742). The data set is described as follows: Inhibition of factor 10a (unknown origin) at 100 uM relative to control.
Coagulation factor X (Homo sapiens), sequence (P00742 41-179 limits assumed): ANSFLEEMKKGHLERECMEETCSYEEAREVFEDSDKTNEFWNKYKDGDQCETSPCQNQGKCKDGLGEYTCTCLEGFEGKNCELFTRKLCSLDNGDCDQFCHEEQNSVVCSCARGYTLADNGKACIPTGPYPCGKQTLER
Coagulation factor X (Homo sapiens), sequence (P00742 235-488 limits assumed): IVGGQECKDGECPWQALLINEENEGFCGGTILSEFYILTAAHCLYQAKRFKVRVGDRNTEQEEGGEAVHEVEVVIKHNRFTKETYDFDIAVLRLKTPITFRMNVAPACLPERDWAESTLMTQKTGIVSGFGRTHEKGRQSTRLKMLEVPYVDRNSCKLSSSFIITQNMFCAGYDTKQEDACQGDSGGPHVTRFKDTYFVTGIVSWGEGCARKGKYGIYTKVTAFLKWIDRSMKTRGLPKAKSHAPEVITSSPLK
The target in data set [10] is Tissue-type plasminogen activator (Homo sapiens) (UniProt P00750). The data set is described as follows: Inhibition of tPA (unknown origin) at 100 uM relative to control.
Tissue-type plasminogen activator (Homo sapiens), sequence (P00750 36-562 limits assumed): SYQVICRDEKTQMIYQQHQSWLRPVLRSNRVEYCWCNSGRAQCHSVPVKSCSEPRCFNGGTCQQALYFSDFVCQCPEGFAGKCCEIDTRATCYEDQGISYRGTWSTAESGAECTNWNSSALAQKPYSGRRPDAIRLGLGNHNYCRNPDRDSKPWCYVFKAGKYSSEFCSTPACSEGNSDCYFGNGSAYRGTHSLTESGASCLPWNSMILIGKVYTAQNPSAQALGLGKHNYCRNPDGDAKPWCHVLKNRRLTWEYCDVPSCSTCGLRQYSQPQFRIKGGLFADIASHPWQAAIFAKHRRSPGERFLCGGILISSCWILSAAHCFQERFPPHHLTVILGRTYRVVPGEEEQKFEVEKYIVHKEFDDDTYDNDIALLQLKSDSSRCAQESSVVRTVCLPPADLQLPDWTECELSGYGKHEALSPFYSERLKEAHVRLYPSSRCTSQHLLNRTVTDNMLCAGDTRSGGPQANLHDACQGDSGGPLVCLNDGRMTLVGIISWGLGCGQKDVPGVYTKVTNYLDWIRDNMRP
For data set [11], the target named is Plasminogen (Homo sapiens) (UniProt P00747). The data set is described as follows: Inhibition of plasmin (unknown origin) at 100 uM relative to control.
Plasminogen (Homo sapiens), sequence (P00747 97-580 limits assumed): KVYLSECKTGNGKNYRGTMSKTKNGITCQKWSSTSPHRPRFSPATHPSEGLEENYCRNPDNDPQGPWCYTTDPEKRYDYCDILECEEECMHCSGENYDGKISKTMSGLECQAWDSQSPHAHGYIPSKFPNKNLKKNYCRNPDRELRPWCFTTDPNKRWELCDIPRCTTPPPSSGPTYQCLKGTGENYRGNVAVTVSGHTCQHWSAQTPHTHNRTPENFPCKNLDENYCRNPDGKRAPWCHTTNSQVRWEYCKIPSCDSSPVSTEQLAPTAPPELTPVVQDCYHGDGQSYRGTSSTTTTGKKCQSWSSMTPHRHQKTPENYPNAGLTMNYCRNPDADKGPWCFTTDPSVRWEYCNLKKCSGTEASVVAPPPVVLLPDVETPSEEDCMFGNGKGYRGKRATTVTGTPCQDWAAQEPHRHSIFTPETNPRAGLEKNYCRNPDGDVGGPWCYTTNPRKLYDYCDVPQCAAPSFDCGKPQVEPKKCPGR
Plasminogen (Homo sapiens), sequence (P00747 581-810 limits assumed): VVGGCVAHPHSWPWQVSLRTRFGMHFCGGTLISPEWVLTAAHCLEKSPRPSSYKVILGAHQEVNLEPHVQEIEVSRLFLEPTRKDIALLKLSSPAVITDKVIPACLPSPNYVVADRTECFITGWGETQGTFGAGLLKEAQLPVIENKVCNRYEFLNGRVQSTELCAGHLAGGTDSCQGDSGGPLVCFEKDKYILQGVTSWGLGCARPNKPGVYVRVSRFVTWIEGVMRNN
Data set [12] is filed under the species Homo sapiens. In words: Inhibition of trypsin (unknown origin) at 100 uM relative to control.
Data set [13] is filed under the species Homo sapiens. The data set is described as follows: Inhibition of tryptase (unknown origin) at 100 uM relative to control.
Data set [14] has as its target Prothrombin (Homo sapiens) (UniProt P00734). The data set is described as follows: Inhibition of factor 2a (unknown origin) at 100 uM relative to control.
For data set [15], the target named is T3, Coagulation factor VII (Homo sapiens) (UniProt P08709).
T3 sequence (whole entry): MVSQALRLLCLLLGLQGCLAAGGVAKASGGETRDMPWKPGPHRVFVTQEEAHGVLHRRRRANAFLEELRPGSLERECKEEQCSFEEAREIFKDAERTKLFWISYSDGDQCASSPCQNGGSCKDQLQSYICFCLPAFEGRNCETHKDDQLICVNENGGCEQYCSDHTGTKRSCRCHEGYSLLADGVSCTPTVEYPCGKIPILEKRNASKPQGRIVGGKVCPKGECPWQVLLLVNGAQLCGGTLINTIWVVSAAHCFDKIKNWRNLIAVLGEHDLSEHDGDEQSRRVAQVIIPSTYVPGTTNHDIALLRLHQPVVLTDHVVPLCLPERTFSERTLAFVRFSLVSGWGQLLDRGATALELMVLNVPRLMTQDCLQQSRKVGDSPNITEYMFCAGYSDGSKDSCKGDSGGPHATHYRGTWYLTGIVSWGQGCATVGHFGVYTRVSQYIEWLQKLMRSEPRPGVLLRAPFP
In words: Inhibition of factor 7a (unknown origin) at 100 uM relative to control.

The target of data set [16] is T4, Coagulation factor XII (Homo sapiens) (UniProt P00748).
T4 sequence (whole entry): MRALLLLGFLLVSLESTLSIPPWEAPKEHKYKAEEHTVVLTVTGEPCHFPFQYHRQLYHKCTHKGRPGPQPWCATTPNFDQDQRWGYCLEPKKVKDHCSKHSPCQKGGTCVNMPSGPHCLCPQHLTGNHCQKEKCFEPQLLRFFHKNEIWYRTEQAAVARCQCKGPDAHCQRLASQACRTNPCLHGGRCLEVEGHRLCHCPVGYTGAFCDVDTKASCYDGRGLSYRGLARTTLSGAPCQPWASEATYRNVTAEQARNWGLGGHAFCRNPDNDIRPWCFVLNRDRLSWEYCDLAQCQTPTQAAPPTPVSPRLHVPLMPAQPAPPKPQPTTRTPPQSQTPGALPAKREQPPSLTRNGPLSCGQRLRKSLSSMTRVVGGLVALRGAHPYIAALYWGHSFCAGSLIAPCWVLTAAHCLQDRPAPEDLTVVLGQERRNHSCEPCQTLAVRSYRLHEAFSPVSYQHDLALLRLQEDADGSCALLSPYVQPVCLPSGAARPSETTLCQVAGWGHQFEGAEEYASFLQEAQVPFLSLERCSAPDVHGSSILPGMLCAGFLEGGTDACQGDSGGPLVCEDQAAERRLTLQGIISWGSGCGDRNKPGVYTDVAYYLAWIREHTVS
In words: Inhibition of factor 12a (unknown origin) at 100 uM relative to control.

Data set [17] addresses Urokinase-type plasminogen activator (Homo sapiens) (UniProt P00749). The data set is described as follows: Inhibition of urokinase (unknown origin) at 100 uM relative to control.

This is an account of results in ChEMBL document CHEMBL3860098, “Sulfamide as Zinc Binding Motif in Small Molecule Inhibitors of Activated Thrombin Activatable Fibrinolysis Inhibitor (TAFIa)” (J Med Chem, 2016).

Structures are written as SMILES.

Plasma kallikrein (Homo sapiens), sequence (P03952 20-390 limits assumed): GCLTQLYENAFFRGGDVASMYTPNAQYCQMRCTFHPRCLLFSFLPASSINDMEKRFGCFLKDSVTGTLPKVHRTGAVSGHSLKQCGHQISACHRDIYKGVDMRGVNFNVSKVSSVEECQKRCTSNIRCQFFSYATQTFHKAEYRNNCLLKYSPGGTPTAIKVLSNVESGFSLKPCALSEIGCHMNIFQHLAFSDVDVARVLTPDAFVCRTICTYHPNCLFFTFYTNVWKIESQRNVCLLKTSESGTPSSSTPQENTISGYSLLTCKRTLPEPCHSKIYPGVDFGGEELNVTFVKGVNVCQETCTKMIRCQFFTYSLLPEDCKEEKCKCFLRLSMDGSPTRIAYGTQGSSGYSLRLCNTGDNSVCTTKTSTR
Plasma kallikrein (Homo sapiens), sequence (P03952 391-638 limits assumed): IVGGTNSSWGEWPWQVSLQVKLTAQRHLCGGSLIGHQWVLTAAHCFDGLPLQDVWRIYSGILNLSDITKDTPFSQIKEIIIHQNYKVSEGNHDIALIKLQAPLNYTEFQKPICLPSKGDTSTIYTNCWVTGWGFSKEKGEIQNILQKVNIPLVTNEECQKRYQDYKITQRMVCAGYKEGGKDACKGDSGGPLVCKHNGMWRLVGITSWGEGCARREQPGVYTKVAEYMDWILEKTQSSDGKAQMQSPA
Description for Carboxypeptidase B2: Inhibition of activated human plasma TAFI incubated for 15 mins by chromogenic assay

`CC1(C)[C@@H]2CC[C@@]1(C)[C@@H](NC(=O)[C@H](CC1CCCCC1)NS(=O)(=O)N[C@@H](CCCCO)C(=O)O)C2`: at Carboxypeptidase B2, the IC50 is more than 30 µM.

Turning to `CC1(C)[C@@H]2CC[C@@]1(C)[C@@H](NC(=O)[C@H](CC1CCCCC1)NS(=O)(=O)N[C@@H](CCCCN)C(=O)O)C2` [listing 1 of 2 here], the Vd in [1] amounted to 0.38 L/kg. In addition, in data set [2], the dose excreted at 24 h amounted to 4%. The C0 at 4 h in data set [3] was 3800 ng/mL. The same molecule had a clearance in [4] of 11.7 mL/min/kg. Further, the half-life in [5] was 1.7 h.

Take `CC(C)(C)NC(=O)[C@H](CC1CCCCC1)NS(=O)(=O)N[C@@H](CCCCN)C(=O)O`: the IC50 against Carboxypeptidase B2 is 6.7 µM.

At Carboxypeptidase B2, `CC1(C)[C@@H]2CC[C@@]1(C)[C@@H](NC(=O)[C@H](CC1CCCCC1)NS(=O)(=O)N[C@@H](CCCCNC(N)=O)C(=O)O)C2` showed an IC50 of more than 30 µM.

The molecule `CC(=O)NCCCC[C@H](NS(=O)(=O)N[C@@H](CC1CCCCC1)C(=O)N[C@H]1C[C@H]2CC[C@]1(C)C2(C)C)C(=O)O` registered a half-inhibitory concentration (IC50) against Carboxypeptidase B2 of more than 30 µM.

As for `CC1(C)C2CCC1(C)[C@@H](NC(=O)[C@H](CC1CCCCC1)NC(=O)N[C@@H](CCCCN)C(=O)O)C2` (stereo partly specified), the half-maximal inhibitory concentration (IC50) on Carboxypeptidase B2 turned out to be 0.003 µM.

With `CC1(C)[C@@H]2CC[C@@]1(C)[C@@H](NC(=O)[C@H](CC1CCCCC1)NS(=O)(=O)N[C@@H](CCCCN)C(=O)O)C2` [listing 2 of 2 here], the inhibition in data set [6], in [7], in [8], in [9], in data set [10] and in [11] was less than 40% in each case. In addition, the inhibition (in the data set listed under Homo sapiens [12]; in the data set listed under Homo sapiens [13]; in data set [14]; in data set [15]; in data set [16]; in data set [17]) was less than 40% in each case.

At Carboxypeptidase B2, `CC1(C)[C@@H]2CC[C@@]1(C)[C@@H](NC(=O)[C@H](CC1CCCCC1)NS(=O)(=O)N[C@@H](CC1CCC(N)CC1)C(=O)O)C2` (stereo partly specified) had a half-inhibitory concentration (IC50) of more than 30 µM.

Take `NCCCC[C@H](NS(N)(=O)=O)C(=O)O`: on Carboxypeptidase B2, half-maximal inhibition (IC50) required 15 µM.

On Carboxypeptidase B2, `NCCCC[C@H](NS(=O)(=O)N[C@H](C(=O)NC12CC3CC(CC(C3)C1)C2)c1ccccc1)C(=O)O` showed a half-inhibitory concentration (IC50) of more than 30 µM.

Turning to `CC(C)[C@H](NS(=O)(=O)N[C@@H](CCCCN)C(=O)O)C(=O)NC12CC3CC(CC(C3)C1)C2`, the IC50 on Carboxypeptidase B2 is more than 30 µM.

In the case of `CC1(C)[C@@H]2CC[C@@]1(C)[C@@H](NC(=O)[C@H](CC1CCCCC1)NS(=O)(=O)N[C@@H](CCCC(N)=O)C(=O)O)C2`, the IC50 on Carboxypeptidase B2 is more than 30 µM.

Take `CC1(C)[C@@H]2CC[C@@]1(C)[C@@H](NC(=O)[C@@H](NS(=O)(=O)N[C@@H](CCCCN)C(=O)O)C1CCCCC1)C2`: the half-inhibitory concentration (IC50) at Carboxypeptidase B2 turned out to be 47 µM.

With `C[C@H](NS(=O)(=O)N[C@@H](CCCCN)C(=O)O)C(=O)NC12CC3CC(CC(C3)C1)C2`, on Carboxypeptidase B2, the half-maximal inhibitory concentration (IC50) was more than 30 µM.

`NCCCC[C@H](NS(=O)(=O)NCC(=O)NC12CC3CC(CC(C3)C1)C2)C(=O)O` yielded a 50% inhibitory concentration (IC50) against Carboxypeptidase B2 of more than 30 µM.

Consider `CC1(C)C2CCC1(C)C(OC(=O)[C@H](CC1CCCCC1)NS(=O)(=O)N[C@@H](CCCCN)C(=O)O)C2` (stereo partly specified), for which the IC50 on Carboxypeptidase B2 worked out at 6.4 µM.
